# Test results taken from US9624229B2, “Pyrimidine-2-amine compounds and their use as inhibitors of JAK kinases” (Rigel Pharmaceuticals, Inc., priority 2008, dated 2017).
# Target: Ba/F3 V617F cells (Homo sapiens, UniProt O60674, V617F, cells depend on it)
# Assay: Proliferation assay (Cell Titer-Glo, 72 h) utilizing Ba/F3 V617F cells
# Assay type: cell-based, mouse
# Details: Ba/F3 V617F cells, proliferation, level of activity given as class symbol, read-out: IC50 (the source's name)
# How it was run: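 Readout is CellTiter-Glo luminescence after 72 h at 37 °C, giving IC50. Cells: Ba/F3 V617F, 1×10^5 cells/mL in RPMI with 10% FBS, treated in duplicate with 3-fold dilution series made from 5 mM DMSO stock, 1:250 in 5% FBS medium, added at 2×.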
# Ba/F3 V617F cells, sequence (O60674 whole entry V617F): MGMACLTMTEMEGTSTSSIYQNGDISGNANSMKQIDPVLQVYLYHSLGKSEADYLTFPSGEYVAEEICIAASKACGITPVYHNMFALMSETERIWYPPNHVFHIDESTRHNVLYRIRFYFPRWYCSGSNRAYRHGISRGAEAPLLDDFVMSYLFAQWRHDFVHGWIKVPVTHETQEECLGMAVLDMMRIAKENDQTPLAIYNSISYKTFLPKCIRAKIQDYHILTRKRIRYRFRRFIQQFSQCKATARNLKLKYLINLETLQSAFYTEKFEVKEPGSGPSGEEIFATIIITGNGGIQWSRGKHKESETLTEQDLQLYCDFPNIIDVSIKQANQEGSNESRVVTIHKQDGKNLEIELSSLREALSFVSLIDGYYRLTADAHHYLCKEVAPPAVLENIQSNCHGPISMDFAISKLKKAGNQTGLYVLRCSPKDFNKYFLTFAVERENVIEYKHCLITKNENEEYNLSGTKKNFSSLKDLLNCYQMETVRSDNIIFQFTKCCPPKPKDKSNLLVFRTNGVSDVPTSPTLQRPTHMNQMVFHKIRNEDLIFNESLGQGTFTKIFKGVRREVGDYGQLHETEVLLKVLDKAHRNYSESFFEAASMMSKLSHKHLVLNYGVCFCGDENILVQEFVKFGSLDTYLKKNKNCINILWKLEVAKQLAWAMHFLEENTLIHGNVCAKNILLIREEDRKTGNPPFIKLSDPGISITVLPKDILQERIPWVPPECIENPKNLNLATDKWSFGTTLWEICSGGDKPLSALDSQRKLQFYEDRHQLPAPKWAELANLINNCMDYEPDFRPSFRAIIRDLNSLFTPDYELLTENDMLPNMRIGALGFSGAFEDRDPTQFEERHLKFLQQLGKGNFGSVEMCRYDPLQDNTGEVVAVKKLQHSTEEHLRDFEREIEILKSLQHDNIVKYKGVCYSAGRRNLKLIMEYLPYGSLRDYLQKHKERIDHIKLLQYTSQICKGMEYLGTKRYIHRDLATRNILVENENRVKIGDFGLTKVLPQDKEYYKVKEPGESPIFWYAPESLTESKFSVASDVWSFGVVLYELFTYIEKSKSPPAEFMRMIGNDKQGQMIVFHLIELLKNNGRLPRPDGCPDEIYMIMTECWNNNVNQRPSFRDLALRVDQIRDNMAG
row,SMILES,GI50 [nM]
1,"CN1C[C@@H]2C[C@H]1CN2c1ccc(Nc2nccc(-c3ccc4c(c3)OC(C)(C)C(=O)N4)n2)cc1C#N [compound 271, 4-(2,2-dimethyl-3-oxo-3,4-dihydro-2H-benzo[b][1,4]oxazin-7-yl)-N-(3-cyano-4-((1S,4S)-5-methyl-2,5-diazabicyclo[2.2.1]heptan-2-yl)phenyl)pyrimidin-2-amine]",< 1000
2,"Cc1cc(Nc2nccc(-c3cnc4c(c3)CCC(=O)N4)n2)ccc1N1C[C@@H]2C[C@H]1CN2S(C)(=O)=O [compound 237, 4-(7-oxo-5,6,7,8-tetrahydro-1,8-naphthyridin-3-yl)-N-(3-methyl-4-((1S,4S)-5-methylsulfonyl-2,5-diazabicyclo[2.2.1]heptan-2-yl)phenyl)pyrimidin-2-amine]",< 1000
3,"CCC(=O)N1C[C@@H]2C[C@H]1CN2c1ccc(Nc2nccc(-c3ccc(NCCN4CCOCC4)nc3)n2)cc1C [compound 197, 4-(6-(2-(morpholin-4-yl)ethyl)aminopyridin-3-yl)-N-(3-methyl-4-((1S,4S)-5-ethylcarbonyl-2,5-diazabicyclo[2.2.1]heptan-2-yl)phenyl)pyrimidin-2-amine]",1000 to 10000

# Continued, values first:
row,GI50 [nM],SMILES
1,< 1000,"Cc1cc(Nc2nccc(-c3cnc4c(c3)OC(C)(C)C(=O)N4)n2)ccc1N1C[C@@H]2CC[C@H]1C2 [compound 223, 4-(2,2-dimethyl-3-oxo-3,4-dihydro-2H-pyrido[3,2-b][1,4]oxazin-7-yl)-N-(3-methyl-4-((1S,4R)-2-azabicyclo[2.2.1]heptan-2-yl)phenyl)pyrimidin-2-amine]"
2,< 1000,"Cc1cc(Nc2nccc(-c3ccc4c(c3)CCCC(=O)N4)n2)ccc1N1CCN2C(C1)[C@H]1CC[C@@H]2C1 (stereo partly drawn) [compound 278, 4-(2-oxo-2,3,4,5-tetrahydro-1H-benzo[b]azepin-7-yl)-N-(3-methyl-4-((6R,9S)-6,9-methanooctahydro-1H-pyrido[1,2-a]pyrazin-2-yl)phenyl)pyrimidin-2-amine]"

# Same assay, conditions: Ba/F3 V617F cells, proliferation, level of activity to inhibit JAK2, read-out: IC50 (the source's name)
row,SMILES,GI50 [nM]
1,"CN1C[C@@H]2C[C@H]1CN2c1ccc(Nc2nccc(-c3cncc(S(C)(=O)=O)c3)n2)cc1F [compound 101, 4-(5-(methyl)sulfonylpyridin-3-yl)-N-(3-fluoro-4-((1S,4S)-5-methyl-2,5-diazabicyclo[2.2.1]heptan-2-yl)phenyl)pyrimidin-2-amine]",< 1000
2,"Cc1cnc(Nc2ccc(N3C[C@@H]4C[C@H]3CN4C)c(F)c2)nc1-c1ccc(N2CCOCC2)nc1 [compound 68, 5-methyl-4-(6-(morpholin-4-yl)pyridin-3-yl)-N-(3-fluoro-4-((1S,4S)-5-methyl-2,5-diazabicyclo[2.2.1]heptan-2-yl)phenyl)pyrimidin-2-amine]",< 1000
3,"Cc1cc(Nc2nccc(-c3cnc4c(c3)OC(C)(C)C(=O)N4)n2)ccc1N1C[C@@H]2C[C@H]1CN2S(N)(=O)=O [compound 38, 4-(2,2-dimethyl-3-oxo-3,4-dihydro-2H-pyrido[3,2-b][1,4]oxazin-7-yl)-N-(3-methyl-4-((1S,4S)-5-(aminosulfonyl)-2,5-diazabicyclo[2.2.1]heptan-2-yl)phenyl)pyrimidin-2-amine]",< 1000
4,"Cc1cc(Nc2nccc(-c3cc4cc(C#N)ccc4[nH]3)n2)ccc1N1C[C@@H]2C[C@H]1CN2C [compound 108, 4-(5-cyano-1H-indol-2-yl)-N-(3-methyl-4-((1S,4S)-5-methyl-2,5-diazabicyclo[2.2.1]heptan-2-yl)phenyl)pyrimidin-2-amine]",< 1000
5,"CC(=O)Nc1ccc(-c2ccnc(Nc3ccc(N4C[C@@H]5C[C@H]4CN5C)c(C)c3)n2)cn1 [compound 132, 4-(6-(acetamido)pyridin-3-yl)-N-(3-methyl-4-((1S,4S)-5-methyl-2,5-diazabicyclo[2.2.1]heptan-2-yl)phenyl)pyrimidin-2-amine]",< 1000

# Second part, the compound after the results:
row,GI50 [nM],SMILES
1,< 1000,"Cc1cc(Nc2nccc(-c3ccc4nccn4c3)n2)ccc1N1C[C@@H]2C[C@H]1CN2C [compound 103, 4-(imidazo[1,2-a]pyridin-6-yl)-N-(3-methyl-4-((1S,4S)-5-methyl-2,5-diazabicyclo[2.2.1]heptan-2-yl)phenyl)pyrimidin-2-amine]"
2,1000 to 10000,"CN1C[C@@H]2C[C@H]1CN2c1ccc(Nc2nccc(-c3ccc(NC(=O)CN4CCOCC4)nc3)n2)cc1F [compound 143, 4-(6-(2-(morpholin-4-yl)acetamido)pyridin-3-yl)-N-(3-fluoro-4-((1S,4S)-5-methyl-2,5-diazabicyclo[2.2.1]heptan-2-yl)phenyl)pyrimidin-2-amine]"
